Experimental data as given in paper PMC10523529 (Proceedings of the National Academy of Sciences of the …, 2023).

Molecular target: T1, TAK1 (TAK1-TAB1 fusion protein) (Homo sapiens, UniProt O43318)
T1 sequence (O43318 15-303): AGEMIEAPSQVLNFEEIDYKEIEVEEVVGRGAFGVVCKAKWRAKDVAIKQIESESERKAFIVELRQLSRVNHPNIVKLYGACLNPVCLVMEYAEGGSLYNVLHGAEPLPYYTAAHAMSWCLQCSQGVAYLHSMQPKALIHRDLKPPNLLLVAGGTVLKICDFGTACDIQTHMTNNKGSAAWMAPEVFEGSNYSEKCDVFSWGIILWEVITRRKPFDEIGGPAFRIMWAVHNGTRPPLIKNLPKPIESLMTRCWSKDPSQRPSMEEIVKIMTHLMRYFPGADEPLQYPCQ
T1 sequence (Q15750 468-504 partner): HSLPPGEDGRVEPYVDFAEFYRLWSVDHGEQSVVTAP
Test: SPR
Assay type: binding

Kd: 12.1 µM
Structure (SMILES): COc1cc(Nc2ncc(F)c(Nc3ccc4c(n3)N(COP(=O)(O)O)C(=O)C(C)(C)O4)n2)cc(OC)c1OC [R788]
